# Reference: patent US10238713B2, “Cyclic tetrapeptides and therapeutic applications thereof” (LODZ UNIVERSITY OF TECHNOLOGY, priority 2010, dated 2019)
# “And” between values parts separate entries of the source, which are not always exact repeats. Identical values can stand only once. Non-standard residues stand in square brackets, D forms with d. Residues, ends and D or L forms follow the SMILES beside them. β3hF = N[C@H](CC(=O)O)Cc1ccccc1
# How the values were obtained:
# [1] = system: PHA-induced proliferation of human peripheral blood mononuclear cells (PBMC); test: Proliferative response of PBMC to PHA (MTT); format: cell-based; conditions: 1 μg/ml, four-day incubation; FIGS. 9A-9B; listed as 4B8M
# Method: PBMC were isolated by centrifugation on Ficoll-uropoline gradient (density 1.077 g/ml) (Lymphoprep; PAA Laboratories), at 800×g for 20 min at 4° C. The interphase cells, consisting of lymphocytes (20%) and monocytes (80%) were then washed three times with Hanks' medium and re-suspended in the culture medium at density of 2×10^6 cells/ml.
# The isolated PBMC were distributed into 96-well flat-bottom plates in 100 μl aliquots (2×10^5 cells/well). PHA was used at concentration of 5 μg/ml. The compounds were tested at concentrations of 1, 10 and 100 μg/ml. DMSO at appropriate dilutions served as control. After a four-day incubation in a cell culture incubator, the proliferative response of cells was determined by the colorimetric MTT method (Hansen et al., J. Immunol. Methods, 1989, pp. 203-210). The data are presented as a mean OD value from quadriplicate wells ±standard error (SE). The cultures “Control (−)” contained no mitogen (PHA). The cultures “Control (PHA)” contained PHA but not cyclic tetrapeptides.
# Briefly, 25 μl of MTT (5 mg/ml) stock solution was added per well at the end of cell incubation and the plates were incubated for 3 h in a cell culture incubator. Then, 100 μl of the extraction buffer (20% SDS with 50% DMF, pH 4.7) was added. After additional overnight incubation, the optical density was measured at 550 nm (Dynatech 5000).
# [2] = system: mice, carrageenan-induced foot pad edema; test: Carrageenan-induced foot-pad edema test; format: in vivo, mouse; conditions: 4 h after carrageenan; peptides 250 μg i.p., DEX 25 μg i.p., 30 min before; FIGS. 17A-17C
# Procedure, shortened: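 Mice received peptide 250 μg i.p. (DMSO/0.9% NaCl vehicle) 30 min before intradermal injection of 50 μl 2% carrageenan into the hind foot pad; dexamethasone 25 μg i.p. as reference. Foot-pad thickness measured by spring caliper at 2, 3 and 4 h; mean increase in mm ±SE, 5 mice/group.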
# [3] = system: mice, carrageenan air pouch; test: Carrageenan air-pouch test (exudate cell number); format: in vivo, mouse; conditions: peptides 100 μg i.p. one hour before carrageenan, 24 h; FIGS. 18A-18B
# Procedure, shortened: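 Mice received peptide i.p. (100 μg, from DMSO/0.9% NaCl) one hour before intra-pouch 1% carrageenan in a 3-day dorsal air pouch; dexamethasone i.p. served as reference. Exudate was aspirated 24 h later after adding 1 ml saline, and cells were counted by hemocytometer (×10^6 per mouse, mean ±SE, 10 mice/group).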
compound,measurement,setting,value
O=C1C[C@H](Cc2ccccc2)NC(=O)[C@@H]2CCCN2C(=O)[C@@H]2CCCN2C(=O)[C@H](Cc2ccccc2)N1 [I-A] (cyclo(FPP[β3hF])),"PHA-induced PBMC proliferation, P vs DMSO at appropriate dilution",[1],0.9995 and 0.9919
same,"foot pad edema (increase of foot pad thickness), P vs Control",[2],0.0001
same,"air pouch exudate cell number, P vs Control",[3],0.0005
